Measurements reported in US8575136B2, “2-methylene-1α-hydroxy-18,19,21-trinorvitamin D3 analogs and uses thereof” (Wisconsin Alumni Research Foundation, priority 2006, dated 2013).
“Also recorded” adds a separate entry of the source.

Columns and labels:
[1] = target: T1, full-length recombinant rat vitamin D receptor (Rattus norvegicus, UniProt P13053); test: Vitamin D receptor binding, competition with [3H]-1,25-(OH)2-D3; conditions: compared to 1α,25-dihydroxyvitamin D3; FIG. 1
T1 construct: Full-length recombinant rat receptor was expressed in E. coli BL21(DE3) Codon Plus RIL cells; histidine tag (C); made in house; host or cells: E. coli BL21(DE3) Codon Plus RIL
T1 sequence (P13053 1-423): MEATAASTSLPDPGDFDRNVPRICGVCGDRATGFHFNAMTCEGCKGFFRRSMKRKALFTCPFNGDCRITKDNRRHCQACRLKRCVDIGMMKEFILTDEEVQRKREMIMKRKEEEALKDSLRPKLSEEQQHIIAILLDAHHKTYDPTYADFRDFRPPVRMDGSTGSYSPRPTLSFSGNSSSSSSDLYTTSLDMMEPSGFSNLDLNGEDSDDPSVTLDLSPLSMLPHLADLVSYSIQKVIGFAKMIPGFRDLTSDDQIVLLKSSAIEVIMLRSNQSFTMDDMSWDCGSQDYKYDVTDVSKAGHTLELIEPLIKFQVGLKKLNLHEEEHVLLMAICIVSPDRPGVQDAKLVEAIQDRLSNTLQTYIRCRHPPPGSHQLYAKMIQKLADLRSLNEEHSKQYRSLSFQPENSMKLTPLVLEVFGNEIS
Description: Full-length recombinant rat receptor was expressed in E. coli BL21(DE3) Codon Plus RIL cells and purified to homogeneity using two different column chromatography systems. The first system was a nickel affinity resin that utilizes the C-terminal histidine tag on this protein. The protein that was eluted from this resin was further purified using ion exchange chromatography (S-Sepharose Fast Flow). Aliquots of the purified protein were quick frozen in liquid nitrogen and stored at −80° C. until use. For use in binding assays, the protein was diluted in TEDK50 (50 mM Tris, 1.5 mM EDTA, pH7.4, 5 mM DTT, 150 mM KCl) with 0.1% Chaps detergent. The receptor protein and ligand concentration was optimized such that no more than 20% of the added radiolabeled ligand was bound to the receptor.
Radiolabeled ligand (^3H-1,25(OH)2D3, ˜159 Ci/mmole) was added in ethanol at a final concentration of 1 nM.
Radiolabeled and unlabeled ligands were added to 100 mcl of the diluted protein at a final ethanol concentration of <10%, mixed and incubated overnight on ice to reach binding equilibrium. The following day, 100 mcl of hydroxylapatite slurry (50%) was added to each tube and mixed at 10-minute intervals for 30 minutes. […] Total binding was determined from the tubes containing only radiolabeled ligand.

[2] = Bone calcium mobilization (serum calcium); parameters: species or system Sprague-Dawley rats; conditions: in vivo, rats, ip doses; FIG. 2
Description: Male, weanling Sprague-Dawley rats were placed on Diet 11 (0.47% Ca) diet+AEK for one week followed by Diet 11 (0.02% Ca)+AEK for 3 weeks. The rats were then switched to a diet containing 0.47% Ca for one week followed by two weeks on a diet containing 0.02% Ca. Dose administration began during the last week on 0.02% calcium diet. Four consecutive ip doses were given approximately 24 hours apart. Twenty-four hours after the last dose, blood was collected from the severed neck and the concentration of serum calcium determined as a measure of bone calcium mobilization. The first 10 cm of the intestine was also collected for intestinal calcium transport analysis using the everted gut sac method. The everted gut sac assay was carried out as previously described by Martin and Deluca, Am. J. Physiol. 216, 1351 (1969); (DeLuca et al., U.S. Pat. No. 4,188,345), which are incorporated by reference as if fully set forth herein. […]
Twenty-four hours after the final dose, approximately 1 ml of blood is allowed to coagulate at room temperature and then centrifuged at 3000×g for 15 minutes. […] The level of calcium is determined by diluting the serum into 0.1% lanthum chloride and measuring the absorbance on an atomic absorption spectrophotometer (Perkin Elmer Model 3110, Shelton, Conn.).

[3] = system: HL-60 cells; test: HL-60 differentiation (nitro blue tetrazolium reduction); assay type: cell-based, human; conditions: compared to 1α,25-dihydroxyvitamin D3; FIG. 4
Description: The study drugs were dissolved in ethanol and the concentrations determined using UV spectrophotometry. Serial dilutions were prepared so that a range of drug concentrations could be tested without changing the final concentration of ethanol (<0.2%) present in the cell cultures.
Human promyelocytic leukemia (HL60) cells were grown in RPMI-1640 medium containing 10% fetal bovine serum. The cells were incubated at 37° C. in the presence of 5% CO2.
HL60 cells were plated at 1.2×10^5 cells/ml. Eighteen hours after plating, cells in duplicate were treated with drug. Four days later, the cells were harvested and a nitro blue tetrazolium reduction assay was performed (Collins et al., 1979; J. Exp. Med. 149:969-974). The percentage of differentiated cells was determined by counting a total of 200 cells and recording the number that contained intracellular black-blue formazan deposits. Verification of differentiation to monocytic cells was determined by measuring phagocytic activity (data not shown).

[4] = Intestinal calcium transport (everted gut sac method); parameters: species or system Sprague-Dawley rats; conditions: in vivo, rats, ip doses; FIG. 3
Description: Male, weanling Sprague-Dawley rats were placed on Diet 11 (0.47% Ca) diet+AEK for one week followed by Diet 11 (0.02% Ca)+AEK for 3 weeks. The rats were then switched to a diet containing 0.47% Ca for one week followed by two weeks on a diet containing 0.02% Ca. Dose administration began during the last week on 0.02% calcium diet. Four consecutive ip doses were given approximately 24 hours apart. Twenty-four hours after the last dose, blood was collected from the severed neck and the concentration of serum calcium determined as a measure of bone calcium mobilization. The first 10 cm of the intestine was also collected for intestinal calcium transport analysis using the everted gut sac method. The everted gut sac assay was carried out as previously described by Martin and Deluca, Am. J. Physiol. 216, 1351 (1969); (DeLuca et al., U.S. Pat. No. 4,188,345), which are incorporated by reference as if fully set forth herein.
Both control and test articles are administered by intraperitoneal injection in 100 microliters for 4-7 consecutive days spaced approximately 24 hours apart.

[5] = system: 24-hydyroxylase (24Ohase) gene promoter upstream of a luciferase reporter gene in ROS 17/2.8 (bone) cells; test: In vitro transcription assay (luciferase reporter); assay type: cell-based; conditions: Ros17/2.8 (bone) cells, compared to 1α,25-dihydroxyvitamin D3; FIG. 5
Description: Transcription activity was measured in ROS 17/2.8 (bone) cells that were stably transfected with a 24-hydyroxylase (24Ohase) gene promoter upstream of a luciferase reporter gene (Arbour et al., 1998). Cells were given a range of doses. Sixteen hours after dosing the cells were harvested and luciferase activities were measured using a luminometer. (RLU=relative luciferase units)

C=C1[C@H](O)CC(=C/C=C2\CCC[C@@H]3[C@@H](CCCCC(C)C)CC[C@@H]23)C[C@H]1O [SX-99, 2-methylene-1α-hydroxy-18,19,21-trinorvitamin D3]
binding to the recombinant vitamin D receptor [1]: considerably less active; also recorded: relatively high binding | bone calcium mobilization activity [2]: significant bone calcium mobilization activity; also recorded: good ability to mobilize calcium from bone | inducing differentiation of HL-60 cells [3]: slightly less active; also recorded: relatively high cell differentiation activity | intestinal calcium transport activity [4]: potent calcium transport activity; also recorded: significant intestinal calcium transport activity | stimulating transcription of a reporter gene [5]: less active
